In paper PMC11220700, “Activation and Purification of ß‐Glucocerebrosidase by Exploiting its Transporter LIMP‐2 – Implications for Novel Treatment Strategies in Gaucher's and Parkinson's Disease” (Advanced Science, 2024):
“Also recorded” adds a separate entry of the source. Blank lines part the entries; values can stand above or below the compound they belong to. No end group written: not given here.

Experiments:
[1] = tested on: Parkinson's disease progression; details: ClinicalTrials.gov ID NCT02906020; cited from earlier work
Text: In the context of diseases, where lysosomal GCase activity is reduced, activation of either impaired mutated GCase or residual wt GCase could provide a therapeutic strategy for restoring lysosomal function. Both in GBA1‐associated and in GBA1‐wt PD models and patients, ongoing preclinical and clinical studies are already exploring this possibility, predominantly at the stage of screening for GCase activators for the treatment of Gaucher and Parkinson's disease.^[ [57], [58] ^] Despite the expected increase of the prevalence of PD and worldwide disease burden due to increasing life expectancy a ...

[2] = tested on: recombinant GCase (Cerezyme/imiglucerase); experiment: 4MU GCase activity assay with recombinant enzyme Cerezyme/imiglucerase; assay type: biochemical; details: varying peptide concentrations, 4MU substrate, detergent‐free, n = 3
Experimental: Activity of GCase‐containing samples (recombinant protein, cell lysate, LE fractions, conditioned culture medium) was measured using the synthetic substrate 4‐methylumbelliferyl‐β‐D‐glucopyranoside (4MU, Merck Millipore, Billerica, MA, United States, #M3633). […] of the sample (cell supernatant, SEC fractions) or 2.5 µg of total protein from whole‐cell lysates were added to the well of a black 96‐well Maxisorp plate (ThermoFisher Scientific Inc., Waltham, MA, United States, #437 111). The reaction volume was then increased to 100 µL with GCase activity buffer (see paragraph “Cell Lysis”) and a final concentration of 1 µM of 4MU substrate was added. After incubation at 37 °C for 30 min, the reaction was stopped by adding 100 µL of stop solution (0.1 M glycine, pH 10.4). GCase activity was quantified via fluorescence of released 4‐methylumbelliferone (endpoint measurement) using an Infinite 200 Pro (TECAN, Männedorf, Switzerland), SpectraMax Gemini (Molecular Devices, San José, CA, United States) or ClarioStar (BMG LABTECH, Ortenberg, Germany) multiplate reader (λ ex: 365 nm; λ em: 445 nm).
For all activity assays in the presence of recombinant LIMP‐2 or synthetic peptides, sodium taurocholate, and Triton X‐100 were omitted from the reaction to not hinder protein–protein interaction. […]

[3] = tested on: lysosomal GCase in primary human fibroblasts (CTRL‐2, PD‐1, PD‐2); experiment: Live cell measurement of lysosomal GCase activity (PFB‐Gluc); assay type: cell-based; details: 10 µM peptide, 48 h, area between curves (total minus bafilomycin), n = 3
Experimental: GCase activity inside the lysosomes of living cells was measured via the fluorescent probe PFB‐Gluc (ThermoFisher Scientific Inc., Waltham, MA, United States, #P11947). The experimental procedure was adapted from Cuddy and Mazzulli.^[ [72] ^] Primary human fibroblasts were seeded at 20 000 cells per well on a black 96‐well cell culture dish with transparent bottom (Corning, Corning, NY, United States, #3603). For each replicate, two wells were seeded. […] The next day, the medium was changed again to 50 µL of fresh media containing treatment. On day 3, one of the two‐seeded wells for each replicate (control well) was treated with 200 nM bafilomycin 1A (Baf, Santa Cruz Biotechnology, Dallas, TX, United States, #sc‐201550A) for 1 h to inhibit lysosomal enzyme activity. […] Immediately after, the first fluorescence measurement was taken (PFB‐Gluc: λ ex: 485 nm; λ em: 538 nm; cutoff: 495 nm). The cells were kept at 37 °C and measured every 30 min for a total of 180 min. […]
For data evaluation, PFB‐Gluc measurements over time were baseline‐corrected and then normalized per well to the respective CellTag 700 signal (cell volume). Replicates were arranged in an XY diagram with their respective Baf control and the AUC for both curves was calculated. Lysosomal activity was then calculated by subtracting the baf control (non‐lysosomal activity) AUC from the non‐inhibited AUC (total activity).

[4] = tested on: primary human fibroblasts (CTRL‐2, PD‐1, PD‐2); experiment: Toxicity assessment via LDH release; assay type: cell-based
Experimental: Primary human fibroblasts were seeded on a 96‐well plate at 3 × 10^4 cells per well. The next day, the medium was replaced with a 50 µL fresh fibroblast medium containing various concentrations of L2H5‐wt peptide (0–20 µM). The cells were incubated for 72 h before the conditioned medium was harvested. LDH release to the cell medium as a marker for cell death was measured using a CyQuant LDH Cytotoxicity Assay Kit (Invitrogen, Waltham, MA, United States #C20300) following the manufacturer's instructions. For each condition, three wells were seeded and measured as triplicates. A480 and […] absorption values were measured using a ClarioStar (BMG LABTECH, Ortenberg, Germany) multiplate reader. LDH enzyme activity was determined by calculating the difference between A480 and A690 values for each well.

HEK 293T cells = details: 5 µM L2H5‐wt, LC‐MS/MS
Experimental: HEK 293T cells were seeded on 10 cm dishes. When confluence was reached, the cells were treated with 5 µM of L2H5‐wt for 2 and 24 h before harvesting. LE fractions were generated as described before (see “Expression and enrichment of lysosomes from HEK 293T cells”). Proteome analysis was performed as described in the following:
The LE fractions were processed using the single‐pot, solid‐phase‐enhanced sample‐preparation (SP3) approach.^[ [74] ^] The proteins were then digested using trypsin overnight at 37 °C. The resultant peptide solution was purified by solid phase extraction in C18 StageTips.^[ [75] ^]
Samples were analyzed using an Orbitrap Exploris 480 mass spectrometer (Thermo Fisher Scientific, Waltham, MA, United States) coupled to an EASY‐nLC 1200 UHPLC system (Thermo Fisher Scientific, Waltham, MA, United States). Peptides were separated in an in‐house packed 60‐cm analytical column (inner diameter: 75 µm; ReproSil‐Pur 120 C18‐AQ 1.9‐µm silica particles, Dr. Maisch, Ammerbuch, Germany) by online reversed‐phase chromatography through a 120‐min gradient of 2.4–32% v/v acetonitrile with 0.1% v/v formic acid at a nanoflow rate of 250 nl min^−1. The eluted peptides were sprayed directly by electrospray ionization into the mass spectrometer. […]

[5] = Precipitation / solubility of peptide in assay buffers; assay type: physicochemical; details: lysosomal pH 5.0, higher concentrations
Experimental: Activity of GCase‐containing samples (recombinant protein, cell lysate, LE fractions, conditioned culture medium) was measured using the synthetic substrate 4‐methylumbelliferyl‐β‐D‐glucopyranoside (4MU, Merck Millipore, Billerica, MA, United States, #M3633). […] of the sample (cell supernatant, SEC fractions) or 2.5 µg of total protein from whole‐cell lysates were added to the well of a black 96‐well Maxisorp plate (ThermoFisher Scientific Inc., Waltham, MA, United States, #437 111). The reaction volume was then increased to 100 µL with GCase activity buffer (see paragraph “Cell Lysis”) and a final concentration of 1 µM of 4MU substrate was added. […] GCase activity was quantified via fluorescence of released 4‐methylumbelliferone (endpoint measurement) using an Infinite 200 Pro (TECAN, Männedorf, Switzerland), SpectraMax Gemini (Molecular Devices, San José, CA, United States) or ClarioStar (BMG LABTECH, Ortenberg, Germany) multiplate reader (λ ex: 365 nm; λ em: 445 nm). […]
For interaction of GCase with L2H5‐wt peptide, recombinant GCase was produced in‐house (see paragraph “Expression and Purification of His‐tagged GCase‐wt Protein”) and labeled as described for Cerezyme. […] For each replicate, a twofold dilution series of 16 samples was measured, starting at 125 µM ligand (L2H5‐wt) concentration. […]

SEC of FRed-L2H5-wt = assay type: physicochemical; details: Superdex 200 Increase 10/300 GL, PBS, 0.5 mL min^−1, UV280 and UV580
Experimental: Two hundred microliters of protein solution were injected using a 500 μL loop. Fractions of 1000 μL were collected. Based on the UV280 and UV580 elution profiles, fraction 15 containing monomeric […] concentrated using a 10K Amicon ultra 0.5 filter unit.

Compound: CC(C)(NC(=O)O[C@@H]1CN2CCC1CC2)c1csc(-c2ccc(F)cc2)n1 [venglustat]
clinical trial outcome [1]: changing GluCer levels alone may not be sufficient to positively affect disease progression

effect on GCase activity, concentration dependence [2]: no effect on GCase activity
Compound: KFERQGSGSQVHFLREDDEAMDKAYQSGSGYGRKKRRQRRR [L2H5‐3xD]
lysosomal GCase activity [3]: did not affect lysosomal GCase activity; also recorded: did not elevate lysosomal GCase activity

Compound: KFERQGSGSQVHFLREIIEAMLKAYQSGSGYGRKKRRQRRR-NH2 [L2H5‐wt]
concentration tolerated (no increase in cell death, LDH release) ([4]; 0–20 µM, 72 h, CTRL‐2, PD‐1, PD‐2 fibroblasts, n = 3): up to 10 µM
LDH release at 20 µM ([4]; 20 µM, 72 h, CTRL‐2, PD‐1, PD‐2 fibroblasts, n = 3): strong increase in LDH release; also recorded: LDH activity in the medium was significantly increased
concentration at which cell toxicity starts ([4]; primary fibroblasts): ≥ 20 µM
L2H5‐wt‐specific tryptic peptides detected in LE fractions, 2 h (HEK 293T cells): peptides 2 and 3; also recorded: could be detected by mass spectrometry 2 h
solubility in MST measurement [5]: insufficient solubility of the peptide at higher concentrations

Compound: QVHFLREIIEAMLKAYQ [FRed‐L2H5‐wt, L2H5‐wt peptide fused to FusionRed, expressed in E. coli]
aggregation in SEC profile (SEC of FRed-L2H5-wt): The earlier peak likely consists of aggregated protein
